From ChEMBL document CHEMBL4007504, “Docking, synthesis and antimalarial activity of novel 4-anilinoquinoline derivatives” (Bioorg Med Chem Lett, 2017)

Assays:
[1] = test system: Plasmodium falciparum; test: Antimalarial activity against chloroquine-resistant Plasmodium falciparum W2 infected in human erythrocytes assessed as parasite growth inhibition after 48 hrs by YOYO1 probe-based flow cytometric method; assay type: functional, cell-based; settings: W2, 48 h
[2] = test system: Plasmodium berghei; test: Antimalarial activity against chloroquine-sensitive Plasmodium berghei infected in Swiss albino mouse assessed as chemosuppression at 200 mg/kg, po qd administered for 4 days by peter's test relative to control; assay type: functional; settings: 96 h
[3] = test system: Mus musculus; test: Toxicity in Swiss albino mouse at 2000 mg/kg, po; assay type: organism-based; settings: in vivo
[4] = biological target: Ferriprotoporphyrin IX; test: Binding affinity to haematin assessed as inhibition of NP40-mediated beta-haematin formation after 4 hrs by pyridine-ferrochrome method

Q: What does the source list for `CN(C)c1nc(Cl)nc(Nc2ccc(Nc3ccnc4cc(Cl)ccc34)cc2)n1`?
A: IC50 [1]: 380 nM; inhibition in vivo at 200 mg/kg [2]: 95.2%; Activity [3]: Non-Toxic; IC50 [4]: 29700 nM

Q: `CCN(CC)c1nc(Cl)nc(Nc2ccc(Nc3ccnc4cc(Cl)ccc34)cc2)n1` was tested. Which IC50 [1] did it give?
A: 268 nM

Q: And the inhibition in vivo at 200 mg/kg [2]?
A: 95.5%

Q: What about the Activity [3] of the same compound?
A: Non-Toxic

Q: And the IC50 [4]?
A: 21600 nM

Q: How did the IC50 [1] turn out when `CCCN(CCC)c1nc(Cl)nc(Nc2ccc(Nc3ccnc4cc(Cl)ccc34)cc2)n1` was run?
A: 8 nM

Q: And the inhibition in vivo at 200 mg/kg [2]?
A: 91.5%

Q: And the Activity [3]?
A: Non-Toxic

Q: And the IC50 [4]?
A: 18600 nM

Q: `Clc1ccc2c(Nc3ccc(Nc4nc(Cl)nc(N(c5ccccc5)c5ccccc5)n4)cc3)ccnc2c1` was tested. Which IC50 [1] did it give?
A: 255 nM

Q: What about the inhibition in vivo at 200 mg/kg [2] of the same compound?
A: 97.4%

Q: What about the Activity [3] of the same compound?
A: Non-Toxic

Q: What about the IC50 [4] of the same compound?
A: 24900 nM

Q: What does the source list for `Clc1ccc2c(Nc3ccc(Nc4nc(Cl)nc(N5CCNCC5)n4)cc3)ccnc2c1`?
A: IC50 [1]: 167 nM; inhibition in vivo at 200 mg/kg [2]: 94.8%; Activity [3]: Non-Toxic; IC50 [4]: 23700 nM

Q: Which results are given for `Clc1ccc2c(Nc3ccc(Nc4nc(Cl)nc(NCc5ccccc5)n4)cc3)ccnc2c1`?
A: IC50 [1]: 123 nM; inhibition in vivo at 200 mg/kg [2]: 97%; Activity [3]: Non-Toxic; IC50 [4]: 21800 nM

Q: `O=[N+]([O-])c1ccc(Nc2nc(Cl)nc(Nc3ccc(Nc4ccnc5cc(Cl)ccc45)cc3)n2)cc1` was tested. Which IC50 [1] did it give?
A: 145 nM

Q: What about the inhibition in vivo at 200 mg/kg [2] of the same compound?
A: 97.4%

Q: What about the Activity [3] of the same compound?
A: Non-Toxic

Q: And the IC50 [4]?
A: 23000 nM

Q: How did the IC50 [1] turn out when `Clc1ccc2c(Nc3ccc(Nc4nc(Cl)nc(N5CCCC5)n4)cc3)ccnc2c1` was run?
A: 119 nM

Q: What about the inhibition in vivo at 200 mg/kg [2] of the same compound?
A: 97%

Q: And the Activity [3]?
A: Non-Toxic

Q: What about the IC50 [4] of the same compound?
A: 28100 nM

Q: With `COc1ccccc1Nc1nc(Cl)nc(Nc2ccc(Nc3ccnc4cc(Cl)ccc34)cc2)n1` as the compound, how does the IC50 [1] read?
A: 145 nM

Q: What about the inhibition in vivo at 200 mg/kg [2] of the same compound?
A: 94.8%

Q: What about the Activity [3] of the same compound?
A: Non-Toxic

Q: And the IC50 [4]?
A: 21000 nM

Q: `Nc1ccc(Nc2ccnc3cc(Cl)ccc23)cc1` was tested. Which IC50 [1] did it give?
A: 807 nM

Q: What about the inhibition in vivo at 200 mg/kg [2] of the same compound?
A: 85.9%

Q: And the Activity [3]?
A: Non-Toxic

Q: What about the IC50 [4] of the same compound?
A: 32500 nM

Q: For `CC(C)N(c1nc(Cl)nc(Nc2ccc(Nc3ccnc4cc(Cl)ccc34)cc2)n1)C(C)C`, which IC50 [1] is on record?
A: 902 nM

Q: And the inhibition in vivo at 200 mg/kg [2]?
A: 95.5%

Q: And the Activity [3]?
A: Non-Toxic

Q: And the IC50 [4]?
A: > 500000 nM

Q: Which results are given for `Clc1ccc2c(Nc3ccc(Nc4nc(Cl)nc(N5CCCCC5)n4)cc3)ccnc2c1`?
A: IC50 [1]: 118 nM; inhibition in vivo at 200 mg/kg [2]: 94.1%; Activity [3]: Non-Toxic; IC50 [4]: 20600 nM

Q: What does the source list for `CCN(c1ccccc1)c1nc(Cl)nc(Nc2ccc(Nc3ccnc4cc(Cl)ccc34)cc2)n1`?
A: IC50 [1]: 220 nM; inhibition in vivo at 200 mg/kg [2]: 97%; Activity [3]: Non-Toxic; IC50 [4]: 29200 nM

Q: Which results are given for `Clc1ccc2c(Nc3ccc(Nc4nc(Cl)nc(N5CCOCC5)n4)cc3)ccnc2c1`?
A: IC50 [1]: 138 nM; inhibition in vivo at 200 mg/kg [2]: 97%; Activity [3]: Non-Toxic; IC50 [4]: 21100 nM

Q: For `CN(c1ccccc1)c1nc(Cl)nc(Nc2ccc(Nc3ccnc4cc(Cl)ccc34)cc2)n1`, which IC50 [1] is on record?
A: 269 nM

Q: And the inhibition in vivo at 200 mg/kg [2]?
A: 91.1%

Q: What about the Activity [3] of the same compound?
A: Non-Toxic

Q: What about the IC50 [4] of the same compound?
A: 23700 nM

Q: For `C[C@@H]1CC[C@H]2[C@@H](C)C(=O)O[C@@H]3O[C@@]4(C)CC[C@@H]1[C@]32OO4` [ARTEMISININ], which IC50 [1] is on record?
A: 15 nM

Q: Which results are given for `CCN(CC)CCCC(C)Nc1ccnc2cc(Cl)ccc12` (stereo not drawn) [CHLOROQUINE]?
A: inhibition in vivo at 200 mg/kg [2]: 83%; IC50 [4]: 27200 nM
